From paper PMC10374968, “Drosophila class-I myosins that can impact left-right asymmetry have distinct ATPase kinetics” (The Journal of Biological Chemistry, 2023)
Read-outs that look alike come from different tables or passages of the source.

Key:
[1] = target: T1, myo1D (myosin-1D; myo31DF) (Drosophila melanogaster, UniProt Q23978); experiment: stopped-flow pyrene-actin fluorescence, slow-phase amplitude vs MgADP, quadratic fit; assay type: binding; parameters: full-length, C-terminal FLAG-Avi tags kept (biotinylated for gliding); baculovirus, Sf9 or Hi5 insect cells; heavy chain 117 kDa, calmodulin light chains; with Calmodulin (Gallus gallus, recombinant); Actin, alpha skeletal muscle (Oryctolagus cuniculus); settings: actomyosin complex; chased with 1 mM MgATP; KMg25: 10 mM Mops pH 7.0, 25 mM KCl, 1 mM MgCl2, 1 mM EGTA, 1 mM DTT; 20 C
[2] = target: T1, myo1D (myosin-1D; myo31DF); settings: read-out: Myo1D; rapid-equilibrium binding step to actomyosin (printed in μM, used as association constant in Equation 2); KMg25 pH 7.0, 1 mM MgCl2; 20 C
[3] = target: myo1C (myosin-1C; myo61F) (Drosophila melanogaster, UniProt Q23979); settings: read-out: Myo1C; rapid-equilibrium binding step to actomyosin (printed in μM, used as association constant in Equation 2); KMg25 pH 7.0, 1 mM MgCl2; 20 C
Sequence of myo1C (myosin-1C; myo61F) (Q23979 whole entry): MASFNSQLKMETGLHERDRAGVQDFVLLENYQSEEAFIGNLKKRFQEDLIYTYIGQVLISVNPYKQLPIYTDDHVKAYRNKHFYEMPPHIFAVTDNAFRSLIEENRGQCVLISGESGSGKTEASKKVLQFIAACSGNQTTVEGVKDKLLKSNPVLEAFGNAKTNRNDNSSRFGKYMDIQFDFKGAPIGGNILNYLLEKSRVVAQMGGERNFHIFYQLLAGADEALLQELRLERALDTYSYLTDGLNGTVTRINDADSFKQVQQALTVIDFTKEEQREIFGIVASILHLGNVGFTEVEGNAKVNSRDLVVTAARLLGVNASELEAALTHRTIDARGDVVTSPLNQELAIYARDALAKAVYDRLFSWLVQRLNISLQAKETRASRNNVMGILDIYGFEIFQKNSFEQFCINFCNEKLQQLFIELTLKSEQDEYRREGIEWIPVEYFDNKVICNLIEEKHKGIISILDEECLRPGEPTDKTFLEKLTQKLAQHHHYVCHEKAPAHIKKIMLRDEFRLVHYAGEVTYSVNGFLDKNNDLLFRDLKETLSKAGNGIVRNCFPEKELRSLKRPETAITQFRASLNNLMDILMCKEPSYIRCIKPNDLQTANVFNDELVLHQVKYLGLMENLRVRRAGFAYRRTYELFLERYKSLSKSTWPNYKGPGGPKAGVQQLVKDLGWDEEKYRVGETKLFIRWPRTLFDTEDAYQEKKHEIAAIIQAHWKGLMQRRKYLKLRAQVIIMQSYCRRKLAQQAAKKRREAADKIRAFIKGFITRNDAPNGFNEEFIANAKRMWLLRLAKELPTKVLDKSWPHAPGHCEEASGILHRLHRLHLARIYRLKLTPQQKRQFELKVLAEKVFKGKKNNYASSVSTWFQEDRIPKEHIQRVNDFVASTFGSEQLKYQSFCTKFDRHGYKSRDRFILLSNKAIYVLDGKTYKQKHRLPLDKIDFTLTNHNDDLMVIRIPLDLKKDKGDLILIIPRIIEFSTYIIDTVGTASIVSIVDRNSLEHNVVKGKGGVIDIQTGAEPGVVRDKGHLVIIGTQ

T1 sequence (Q23978 whole entry): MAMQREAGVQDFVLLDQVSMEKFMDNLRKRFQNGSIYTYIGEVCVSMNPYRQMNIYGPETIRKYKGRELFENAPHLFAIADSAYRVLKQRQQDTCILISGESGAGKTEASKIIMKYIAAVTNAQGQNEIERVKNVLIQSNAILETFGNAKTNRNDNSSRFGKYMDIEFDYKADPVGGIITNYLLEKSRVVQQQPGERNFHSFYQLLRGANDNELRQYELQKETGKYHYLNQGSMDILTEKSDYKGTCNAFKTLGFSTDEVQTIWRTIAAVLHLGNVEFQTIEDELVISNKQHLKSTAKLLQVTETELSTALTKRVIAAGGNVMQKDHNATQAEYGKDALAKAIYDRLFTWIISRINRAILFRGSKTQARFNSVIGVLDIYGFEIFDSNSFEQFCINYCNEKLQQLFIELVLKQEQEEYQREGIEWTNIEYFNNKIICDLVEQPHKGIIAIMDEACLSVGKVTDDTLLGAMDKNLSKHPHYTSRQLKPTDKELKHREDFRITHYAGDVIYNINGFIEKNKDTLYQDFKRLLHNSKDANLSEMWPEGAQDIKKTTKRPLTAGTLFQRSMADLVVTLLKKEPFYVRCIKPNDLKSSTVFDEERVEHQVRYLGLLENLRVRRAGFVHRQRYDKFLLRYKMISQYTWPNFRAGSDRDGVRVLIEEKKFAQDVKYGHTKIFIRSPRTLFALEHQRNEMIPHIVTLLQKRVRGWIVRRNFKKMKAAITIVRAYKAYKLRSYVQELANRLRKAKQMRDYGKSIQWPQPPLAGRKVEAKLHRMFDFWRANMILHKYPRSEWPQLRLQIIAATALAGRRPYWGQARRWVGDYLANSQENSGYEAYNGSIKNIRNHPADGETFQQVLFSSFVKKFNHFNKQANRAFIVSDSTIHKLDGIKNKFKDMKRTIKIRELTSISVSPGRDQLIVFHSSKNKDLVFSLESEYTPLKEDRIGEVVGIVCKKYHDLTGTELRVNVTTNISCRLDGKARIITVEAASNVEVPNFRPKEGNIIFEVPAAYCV

Row | Kd [1] | Kd [2] | Kd [3] | SMILES
1 | 44 ± 2 nM |  |  | Nc1ncnc2c1ncn2[C@@H]1O[C@H](COP(=O)(O)OP(=O)(O)O)[C@@H](O)[C@H]1O [MgADP]
2 |  | 118 ± 15 µM | 73 ± 11 µM | Nc1ncnc2c1ncn2[C@@H]1O[C@H](COP(=O)(O)OP(=O)(O)OP(=O)(O)O)[C@@H](O)[C@H]1O [MgATP]
